{"source": "ChEMBL document CHEMBL5727938", "about": "“HIV protease inhibitors” (2020)", "data": [{"assay": "MT-4 HIV High Resolution Antiviral Assay: Assay protocol is identical to that described for the MT-4 antiviral assay with the following changes: Each drug is run in 2 series of quadruplicates with different starting concentrations for each series and 19 1.5 fold dilutions performed across the plate. […] Data is analyzed and Hill coefficients determined in Graph Pad Prism (San Diego, Calif.).", "units": {"EC50": "nM"}, "values": [{"smiles": "CC(C)(C)C[C@]1(c2ccc(-c3cnn(C(F)F)c3)cc2)NC(=N)N([C@H](COC(=O)NC2(C(F)(F)F)CC2)c2ccc(-n3ncnc3C(F)F)cc2)C1=O", "EC50": 134}, {"smiles": "CC(C)(C)C[C@H]1C(=O)N([C@H](COC(=O)NC2(C(F)(F)F)CC2)c2ccc(F)c(-c3ncnn3C(F)F)c2)C(=N)N1c1ccc(-c2cnn(C(F)F)c2)cc1", "EC50": 28.1}, {"smiles": "CC(C)(F)C[C@H]1C(=O)N([C@H](COC(=O)NC(C)(C)C(F)F)c2ccc(Cl)c(-c3ncnn3C(F)F)c2)C(=N)N1c1ccc(Br)cc1", "EC50": 242}, {"smiles": "CC(C)(C)C[C@]1(c2ccc(-c3cnn(C(F)F)c3)c(F)c2F)NC(=N)N([C@H](COC(=O)NC2(C)CC2)c2ccc(Cl)c(-n3cncn3)c2)C1=O", "EC50": 8.79}, {"smiles": "CC(C)(C)C[C@]1(c2ccc(-c3cnccn3)cc2)NC(=N)C([C@H](COC(=O)NC2(C(F)(F)F)CC2)c2ccc(Cl)c(-c3ncn[nH]3)c2)C1=O", "note": "(stereo partly drawn)", "EC50": 80.4}, {"smiles": "CC(C)(C)C[C@]1(c2ccc(-c3cnn(C(F)F)c3)cc2)NC(=N)N([C@H](COC(=O)NC2(C(F)(F)F)CC2)c2ccc(Cl)c(-n3ncnc3C(F)F)c2)C1=O", "EC50": 28.1}, {"smiles": "CC(C)(C)C[C@]1(c2ccc(-c3ccn(C4CC4)n3)cc2F)NC(=N)C([C@H](COC(=O)NC2(C(F)(F)F)CC2)c2ccc(Cl)c(-n3ncnc3C(F)F)c2)C1=O", "note": "(stereo partly drawn)", "EC50": 18.5}, {"smiles": "CC(C)(C)C[C@H]1C(=O)N([C@H](COC(=O)NC(C)(C)C(F)F)c2ccc(Cl)c(-c3ncnn3C(F)F)c2)C(=N)N1c1ccc(-c2ncccn2)cc1", "EC50": 12}, {"smiles": "CC(C)(C)C[C@]1(c2ccc(-c3ncccn3)cc2)NC(=N)N([C@H](COC(=O)NC2(C(F)(F)F)CC2)c2ccc(Cl)c(C3=NC=NC3C(F)F)c2)C1=O", "note": "(stereo partly drawn)", "EC50": 6.81}, {"smiles": "CC(C)(C)C[C@]1(c2ccc(-c3nncn3C(F)F)cc2F)NC(=N)N([C@H](COC(=O)C2(C(F)(F)F)CC2)c2ccc(Cl)c(-n3ncnc3C(F)F)c2)C1=O", "EC50": 76.7}, {"smiles": "CC(C)(C)C[C@]1(c2ccc(-c3cnn(C4CC4)n3)cc2)NC(=N)N([C@H](COC(=O)NC2(C(F)(F)F)CC2)c2ccc(Cl)c(-c3ncnn3C(F)F)c2)C1=O", "EC50": 16.5}, {"smiles": "CC(C)(C)C[C@]1(c2ccc(-c3cnn(C4CC4)n3)c(F)c2)NC(=N)N([C@H](COC(=O)NC2(C(F)(F)F)CC2)c2ccc(Cl)c(-c3ncnn3C(F)F)c2)C1=O", "EC50": 7.92}, {"smiles": "CC(C)(C)C[C@]1(c2ccc(-c3ccn(C4CC4)n3)cc2)NC(=N)C([C@H](COC(=O)NC2(C(F)(F)F)CC2)c2ccc(Cl)c(-n3ncnc3C(F)F)c2)C1=O", "note": "(stereo partly drawn)", "EC50": 11.5}]}]}
